Experiment [1] has as its system southwestern corn borer larvae. As to the kind of experiment: Leaf dip test, southwestern corn borer larvae. In kind it is in vivo, Diatraea grandiosella. The conditions noted are these: foliar, Bta/Btk 0.8125 ppm, cyantraniliprole 0.1 ppm, mixture 0.8125 ppm + 0.1 ppm (Ratio 1:0.12), read-out: % Efficacy.
From the text: (§1) The following examples were used to determine the synergy of Bacillus thuringiensis subsp. aizawai, Bacillus thuringiensis subsp. kurstaki and cyantraniliprole when controlling diamondback moth, beet armyworm, sugarcane borer, soybean looper, corn earworm, cabbage looper, and southwestern corn borer. Sympatico™ emulsifiable suspension (available from Valent BioSciences LLC) was used as the source of Bacillus thuringiensis subsp. aizawai and Bacillus thuringiensis kurstaki. Sympatico™ contains about a 1:0.67 ratio of Bacillus thuringiensis subsp. kurstaki fermentation solids, spores and toxins to Bacillus thuringiensis subsp. aizawai fermentation solids, spores and toxins. Belt® was used as the source of cyantraniliprole. […] In each example below, the studies were conducted as follows.
(§2) For these tests, standardized laboratory leaf dip methods were used to inoculate plant material with treatment(s). Dry, treated leaves were placed into Petri dishes (100×25 mm) containing filter paper wetted with 500 μl of distilled H2O (“dH2O”). Each dish was then infested with between 5 and 10 larvae, dependent on species. Efficacy ratings were taken at specified intervals. Synergy ratings were calculated for each test.
(§3) % Cexp=A+B−(AB/100), where % Cexp is the expected efficacy and “in which A and B are the control levels given by the single [insecticides]. […]
The subject of experiment [2] is diamondback moth larvae. Nature of the experiment: Leaf dip test, diamondback moth larvae. In kind it is in vivo. The conditions noted are these: Plutella xylostella, foliar, Bta/Btk 0.8125 ppm, cyantraniliprole 0.12 ppm, mixture 0.8125 ppm + 0.12 ppm (Ratio 1:0.12), read-out: % Efficacy. The text has this:
The following examples were used to determine the synergy of Bacillus thuringiensis subsp. aizawai, Bacillus thuringiensis subsp. kurstaki and cyantraniliprole when controlling diamondback moth, beet armyworm, sugarcane borer, soybean looper, corn earworm, cabbage looper, and southwestern corn borer. Sympatico™ emulsifiable suspension (available from Valent BioSciences LLC) was used as the source of Bacillus thuringiensis subsp. aizawai and Bacillus thuringiensis kurstaki. Sympatico™ contains about a 1:0.67 ratio of Bacillus thuringiensis subsp. kurstaki fermentation solids, spores and toxins to Bacillus thuringiensis subsp. aizawai fermentation solids, spores and toxins. Belt® was used as the source of cyantraniliprole. The present invention is not limited to the commercial products used in the examples. […]
For these tests, standardized laboratory leaf dip methods were used to inoculate plant material with treatment(s). […] Synergy ratings were calculated for each test. […]
In order to determine synergy, rates below normal field rate ranges must be used. If normal field rate ranges are used, all of the larvae would die (combining a lethal or near lethal dose of Bacillus thuringiensis subsp. aizawai and Bacillus thuringiensis subsp. kurstaki with a lethal dose of cyantraniliprole would most likely lead to larvae death) in every treatment and synergy would not be able to be determined. […]

The test system of experiment [3] is corn earworm larvae. Nature of the experiment: Leaf dip test, corn earworm larvae. The experiment is classed as in vivo. The conditions noted are these: Helicoverpa zea, foliar, Bta/Btk 2.6 ppm, cyantraniliprole 10.0 ppm, mixture 2.6 ppm + 10.0 ppm (Ratio 1:3.85), read-out: % Efficacy.
Method: In each example below, the studies were conducted as follows.
as §2
% Cexp=A+B−(AB/100), where % Cexp is the expected efficacy and “in which A and B are the control levels given by the single [insecticides]. […] Adopting a conservative approach, Applicant will determine if synergy is present at ratios of ≥1.15.
In this study, the response of corn earworm larvae to amounts of Bacillus thuringiensis subsp. aizawai, Bacillus thuringiensis subsp. kurstaki and cyantraniliprole was observed.
Bacillus thuringiensis subsp. aizawai/Bacillus thuringiensis subsp. kurstaki was applied at a concentration of 2.6 ppm (2.6 μg/ml). Cyantraniliprole was applied at a concentration of 10.0 ppm (10.0 μg/ml). The Bacillus thuringiensis subsp. aizawai/Bacillus thuringiensis kurstaki/cyantraniliprole mixture was applied at a concentration of 2.6 ppm Bacillus thuringiensis subsp. kurstaki/Bacillus thuringiensis subsp. aizawai and 10.0 ppm cyantraniliprole.
The test system of experiment [4] is soybean looper larvae. As to the kind of experiment: Leaf dip test, soybean looper larvae. The experiment is classed as in vivo, Chrysodeixis includens. Conditions: foliar, Bta/Btk 0.26 ppm, cyantraniliprole 1.0 ppm, mixture 0.26 ppm + 1.0 ppm (Ratio 1:15), read-out: % Efficacy.
Method: Belt® was used as the source of cyantraniliprole. […] In each example below, the studies were conducted as follows.
as §2
(§4) % Cexp=A+B−(AB/100), where % Cexp is the expected efficacy and “in which A and B are the control levels given by the single [insecticides].
In this study, the response of soybean looper larvae to Bacillus thuringiensis subsp. aizawai, Bacillus thuringiensis subsp. kurstaki and cyantraniliprole was observed.
Bacillus thuringiensis subsp. aizawai/Bacillus thuringiensis subsp. kurstaki was applied at a concentration of 0.26 ppm (0.26 μg/ml). Cyantraniliprole was applied at a concentration of 1.0 ppm (1.0 μg/ml). The Bacillus thuringiensis subsp. aizawai/Bacillus thuringiensis kurstaki/cyantraniliprole mixture was applied at a concentration of 0.26 ppm Bacillus thuringiensis subsp. aizawai/Bacillus thuringiensis subsp. kurstaki and 1.0 ppm cyantraniliprole.
Experiment [5] deals with cabbage looper larvae. As to the kind of experiment: Leaf dip test, cabbage looper larvae. The experiment is classed as in vivo. The conditions noted are these: Trichoplusia ni, foliar, Bta/Btk 0.8125 ppm, cyantraniliprole 0.50 ppm, mixture 0.8125 ppm + 0.50 ppm (Ratio 1:0.62), read-out: % Efficacy.
Method: (§5) Sympatico™ emulsifiable suspension (available from Valent BioSciences LLC) was used as the source of Bacillus thuringiensis subsp. aizawai and Bacillus thuringiensis kurstaki. Sympatico™ contains about a 1:0.67 ratio of Bacillus thuringiensis subsp. kurstaki fermentation solids, spores and toxins to Bacillus thuringiensis subsp. aizawai fermentation solids, spores and toxins. Belt® was used as the source of cyantraniliprole. […] In each example below, the studies were conducted as follows.
as §2, §4
In this study, the response of cabbage looper larvae to amounts of Bacillus thuringiensis subsp. aizawai, Bacillus thuringiensis subsp. kurstaki and cyantraniliprole was observed.
Bacillus thuringiensis subsp. aizawai/Bacillus thuringiensis subsp. kurstaki was applied at a concentration of 0.8125 ppm (0.8125 μg/ml). […]
Experiment [6] has as its system beet armyworm larvae. As to the kind of experiment: Leaf dip test, beet armyworm larvae. The experiment is classed as in vivo. Conditions: Spodoptera exigua, foliar, Bta/Btk 0.8125 ppm, cyantraniliprole 1.0 ppm, mixture 0.8125 ppm + 1.0 ppm (Ratio 1:1.23), read-out: % Efficacy.
Method: as §5, §2, §4
Bacillus thuringiensis subsp. aizawai/Bacillus thuringiensis subsp. kurstaki was applied at a concentration of 0.8125 ppm (0.8125 μg/ml). Cyantraniliprole was applied at a concentration of 1.0 ppm (1.0 μg/ml). […]
In experiment [7] the test system is sugarcane borer larvae. Nature of the experiment: Leaf dip test, sugarcane borer larvae. In kind it is in vivo. Conditions: Diatraea saccharalis, foliar, Bta/Btk 0.8125 ppm, cyantraniliprole 1.0 ppm, mixture 0.8125 ppm + 1.0 ppm (Ratio 1:1.23), read-out: % Efficacy.
From the text: as §1, §2, §3

These results are taken from US9968098B2, “Synergistic Bacillus thuringiensis subsp. aizawai, Bacillus thuringiensis subsp. kurstaki and cyantraniliprole mixtures for diamondback moth, beet armyworm, southwestern corn borer, and corn earworm” (Valent BioSciences LLC, priority 2016, dated 2018).

SMILES strings stand for the structures. Where two headings read alike, the source gives them in different places.

As for `CNC(=O)c1cc(C#N)cc(C)c1NC(=O)c1cc(Br)nn1-c1ncccc1Cl` [Cyantraniliprole, 3-Bromo-1-(3-chloro-2-pyridinyl)-N-[4-cyano-2-methyl-6-(methylcarbamoyl)phenyl]-1H-pyrazole-5-carboxamide], the Emax at 0.1 ppm in experiment [1] (24 h after treatment) came out at 15%; in experiment [1] (48 h after treatment) it was 32%. The Emax at 0.12 ppm in experiment [2] (24 h after treatment) amounted to 29%; in experiment [2] (48 h after treatment), 52%. Besides, the values for the Emax at 10 ppm in experiment [3] (24 h after treatment) and in experiment [3] (48 h after treatment) were 44% and 60%, respectively. Further, the Emax at 1 ppm in experiment [4] (24 h after treatment) is 12%; in experiment [4] (48 h after treatment), 41%; in experiment [6] (24 h after treatment), 20%; in experiment [6] (48 h after treatment) it was 35%; in experiment [7] (24 h after treatment), 24%; in experiment [7] (48 h after treatment) it was 35%. Also, the Emax at 0.5 ppm in experiment [5] (24 h after treatment) came out at 18%; in experiment [5] (48 h after treatment), 40%.
